Test results from US4591582A, “Organophosphorus compounds useful as anticonvulsant agents” (priority 1984, dated 1986).
Read-outs that look alike come from different tables or passages of the source.

Key:
[1] = tested on: seizures induced by subcutaneous bicuculline (scBic); details: data taken from Kupferberg, 1980, cited from earlier work; for ED50, scBic: bicuculline 2.7 mg/kg s.c.
[2] = tested on: seizures induced by subcutaneous picrotoxin (scPic); details: data taken from Kupferberg, 1980, cited from earlier work; for ED50, scPic: picrotoxin 3.2 mg/kg s.c.
[3] = tested on: convulsions induced in mice by MES and scMet; details: reported, Kupferberg, 1980; cited from earlier work
[4] = tested on: seizures induced by maximal electroshock (MES); test: inhibition of seizures induced by maximal electroshock (MES) in mice, intraperitoneal; type: in vivo, male Carworth Farms No. 1 mice; details: for ED50, MES / P.I. (protective index, TD50/ED50), MES: i.p.; for factor of greater protection against MES than VPA: relative to VPA (valproic acid)
Experimental: (§1) All tests were performed on male Carworth Farms No. 1 mice by the Antiepileptic Drug Development Program administered by the Section of Epilepsy, National Institutes of Health, Bethesda, MD 20014, according to previously described procedures [DHEW Publication No. (NIH) 76-1093 (1976), Bethesda, MD]. These involved the inhibition of seizures induced by maximal electroshock (MES) and by three subcutaneously administered chemicals: 85 mg/kg pentylenetetrazol (Metrazol) (scMet), 2.7 mg/kg bicuculline (scBic) and 3.2 mg/kg picrotoxin (scPic). Test compounds were solubilized in polyethylene glycol 400 and administered intraperitoneally in a volume of 0.01 ml/g. The time of peak anticonvulsant activity were determined for II (200 mg/kg), III (300 mg/kg) and IV (300 mg/kg) against MES and for I (200 mg/kg) against scMet with dosing of I-III at 0.5, […]. using four mice per dose. Neurotoxicity was evaluated by placing an animal on a 1 in. diameter knurled plastic rod and rotating at 6 rpm. Failure of the animal to remain on the rod for 1 min. signified neurological toxicity. This testing was performed using groups of eight mice on a time course basis by dosing with I (900 mg/kg), II (400 mg/kg) and III (360 mg/kg) after 0.5, 1, 2 and 4 hrs. and with IV (580 mg/kg) after an additional 6 and 24 hrs. The neurotoxicity was also similarly quantified, with observations taken 30 mins. after dosing, as follows (compound/mg/kg): I, 400, 500, 600, 700, 800, 900; II, 350, 400, 430, 470; III, 230, 260, 300, 360, 420; IV, 150, 300, 400, 500, 580, 600. Quantification of anticonvulsant activity was similarly determined as follows (compound, test, mg/kg), I, MES, 100, 140, 150, 160, 170, 190, 250; I, scMet, 140, 200, 240, 300, 400, 500; I, scBic, 350, 400, 450, 475, 500; I, scPic, 150, 250, 330, 440, 500; II, MES, 130, 170, 200, 230; II, scMet, 150, 180, 230, 300; III, MES, 220, 240, 280, 290, 300; III, scMet, 300, 400, 500, 600; IV, MES, 150, 220, 300, 400, 500, 600; IV, scMet, 300, 410, 470, 600, 760. […] I=dimethyl ester of 3-aminophenylphosphonic acid; II=diethyl ester of 3-aminophenylphosphonic acid; III=diisopropyl ester of 3-aminophenylphosphonic acid; and IV=diethyl-2-acetamidophenylphosphate.

[5] = tested on: seizures induced by subcutaneous picrotoxin (scPic); type: in vivo, male Carworth Farms No. 1 mice
Experimental: as §1, with “600.” for “600. Quantification of anticonvulsant activity was similarly determined as follows (compound, test, mg/kg), I, MES, 100, 140, 150, 160, 170, 190, 250; I, scMet, 140, 200, 240, 300, 400, 500; I, scBic, 350, 400, 450, 475, 500; I, scPic, 150, 250, 330, 440, 500; II, MES, 130, 170, 200, 230; II, scMet, 150, 180, 230, 300; III, MES, 220, 240, 280, 290, 300; III, scMet, 300, 400, 500, 600; IV, MES, 150, 220, 300, 400, 500, 600; IV, scMet, 300, 410, 470, 600, 760.”

[6] = tested on: seizures induced by subcutaneous bicuculline (scBic); test: inhibition of seizures induced by subcutaneous bicuculline (scBic), 2.7 mg/kg; type: in vivo, male Carworth Farms No. 1 mice
Experimental: as §1, with “600.” for “600. Quantification of anticonvulsant activity was similarly determined as follows (compound, test, mg/kg), I, MES, 100, 140, 150, 160, 170, 190, 250; I, scMet, 140, 200, 240, 300, 400, 500; I, scBic, 350, 400, 450, 475, 500; I, scPic, 150, 250, 330, 440, 500; II, MES, 130, 170, 200, 230; II, scMet, 150, 180, 230, 300; III, MES, 220, 240, 280, 290, 300; III, scMet, 300, 400, 500, 600; IV, MES, 150, 220, 300, 400, 500, 600; IV, scMet, 300, 410, 470, 600, 760.”

[7] = tested on: seizures induced by subcutaneous pentylenetetrazol (Metrazol) (scMet); test: inhibition of seizures induced by subcutaneous pentylenetetrazol (Metrazol) (scMet), 85 mg/kg; type: in vivo, male Carworth Farms No. 1 mice; details: for P.I. (protective index, TD50/ED50), scMet / ED50, scMet: i.p.
Experimental: as §1

[8] = Rotorod neurotoxicity test (failure to remain on rotating rod, 6 rpm, for 1 min); type: in vivo, male Carworth Farms No. 1 mice; details: mouse, in vivo, ip; mice, i.p., 30 mins. after dosing
Experimental: as §1

neurotoxicity (Rotorod) [9] = test: as above; type: in vivo, male Carworth Farms No. 1 mice
Experimental: as §1

[10] = tested on: convulsions induced in mice by MES and scMet; test: time course of protection against convulsions induced by MES and scMet (FIG. 1); type: in vivo; details: i.p., 300 mg/kg
Experimental: FIG. 1 is a graphical representation showing the time course of percent protection by intraperitoneally administered I-IV against seizures induced by maximal electroshock (MES) or subcutaneous pentylenetetrazol (Metrazol) (scMet). Key: ( ) I (dimethyl ester of 3-aminophenylphosphonic acid) 400 mg/kg, scMet: ( ) II (diethyl ester of 3-aminophenylphosphonic acid) 200 mg/kg, MES; ( ) III (diisopropyl ester of 3-aminophenylphosphonic acid) 300 mg/kg, MES: ( ) IV (diethyl-2-acetamidophenylphosphate) 300 mg/kg, MES.
All tests were performed on male Carworth Farms No. 1 mice by the Antiepileptic Drug Development Program administered by the Section of Epilepsy, National Institutes of Health, Bethesda, MD 20014, according to previously described procedures [DHEW Publication No. (NIH) 76-1093 (1976), Bethesda, MD]. […] The time of peak anticonvulsant activity were determined for II (200 mg/kg), III (300 mg/kg) and IV (300 mg/kg) against MES and for I (200 mg/kg) against scMet with dosing of I-III at 0.5, […]. using four mice per dose. Neurotoxicity was evaluated by placing an animal on a 1 in. diameter knurled plastic rod and rotating at 6 rpm. […]

[11] = tested on: seizures induced by subcutaneous pentylenetetrazol (Metrazol) (scMet); details: data taken from Kupferberg, 1980, cited from earlier work; for ED50, scMet: pentylenetetrazol 85 mg/kg s.c.
neurotoxicity (Rotorod) [12] = details: data taken from Kupferberg, 1980; cited from earlier work
[13] = tested on: seizures induced by maximal electroshock (MES); details: data taken from Kupferberg, 1980; cited from earlier work
[14] = mice, pentylenetetrazol 85 mg/kg s.c.

For `CCC1(C)CC(=O)NC1=O` (stereo not drawn) [Ethosuximide], the “ED50, scBic” value [1] is listed as 459.01 mg/kg, the “ED50, scPic” value [2] is listed as 242.69 mg/kg and the “time to peak effect” value [3] is listed as 30 min.
For `COP(=O)(OC)c1cccc(N)c1` [I, dimethyl ester of 3-aminophenylphosphonic acid], the “ED50, MES” value ([4]; mice) was 166.46 mg/kg, the “P.I. (protective index, TD50/ED50), MES” value ([4]; mice) was 4.08 and the “factor of greater protection against MES than VPA” value (“factor of greater protection” for short) [4] was 2.6 times. For the same compound, the “factor of greater protection” value ([4]; listed as dimethyl ester of 3-aminophenylphosphonic acid) was “about 2.5 times”, the “times better than valproic acid against chemically induced seizures” value ([5]; first of two chemically induced seizures (scPic)) was 1.8 times and the “P.I. (protective index, TD50/ED50), scPic” value ([5]; mice, i.p., TD50/ED50) was 2.02. The “ED50, scPic” value ([5]; mouse, in vivo, ip) was 336.20 mg/kg, the “effectiveness against scPic relative to VPA” value ([5]; relative to VPA) was 1.8 times and the “P.I. (protective index, TD50/ED50), scBic” value ([6]; mice, i.p., TD50/ED50) was 1.56. For the same compound, the “ED50, scBic” value ([6]; mice, i.p., bicuculline 2.7 mg/kg s.c.) was 435.94 mg/kg, the “effectiveness against scBic relative to VPA” value ([6]; relative to VPA) was 1.3 times and the “times better than valproic acid against chemically induced seizures” value ([6]; second of two chemically induced seizures (scBic)) was 1.3 times. The “P.I. (protective index, TD50/ED50), scMet” value ([7]; mice) was 2.83, the “ED50, scMet” value [7, 14] was 239.93 mg/kg and the “result in scMet test compared with VPA” value ([7]; relative to VPA) was “nearly identical results as VPA”. The “activity profile in all three testing procedures compared with trimethadione” value ([7]; scMet, scBic, scPic) was “very similar to trimethadione”, the TD50 at 0.5 h [8] was 680 mg/kg and the neurotoxicity dose level (neurotoxicity (Rotorod) [9]; compared with valproic acid) was “superior neurotoxicity dose level”.
With `CCOP(=O)(OCC)c1cccc(N)c1` [II, diethyl ester of 3-aminophenylphosphonic acid] the “ED50, MES” value ([4]; mice) was 175.43 mg/kg, the “P.I. (protective index, TD50/ED50), MES” value ([4]; mice) was 2.22 and the “factor of greater protection” value [4] was 1.4 times. For the same compound, the “P.I. (protective index, TD50/ED50), scMet” value ([7]; mice) was 1.86, the “ED50, scMet” value [7, 14] was 208.73 mg/kg and the TD50 at 0.5 h [8] was 389 mg/kg.
With `CC(C)OP(=O)(OC(C)C)c1cccc(N)c1` [III, diisopropyl ester of 3-aminophenylphosphonic acid] the “ED50, MES” value ([4]; mice) was 266.49 mg/kg, the “P.I. (protective index, TD50/ED50), MES” value ([4]; mice) was 1.17 and the TD50 at 0.5 h [8] was 311 mg/kg.
In the case of `CCOP(=O)(OCC)Oc1ccccc1NC(C)=O` [IV, diethyl-2-acetamidophenylphosphate], the “latent protective effect in time course” value [10] was “slight degree of latent protective effect”, the ED50 ([4]; Mus musculus, ip, mice) was 348 mg/kg and the “P.I. (protective index, TD50/ED50), MES” value ([4]; mice) was 1.31. For the same compound, the ED50 ([7]; Mus musculus, ip, mice, pentylenetetrazol 85 mg/kg s.c.) was 444 mg/kg, the “P.I. (protective index, TD50/ED50), scMet” value ([7]; mice) was 1.03 and the TD50 at 0.5 h [8] was 458 mg/kg. The “time course of neurotoxicity” value (neurotoxicity (Rotorod) [9]; mice, i.p., IV 580 mg/kg, up to 24 hours) was “high and prolonged toxicity beginning after two hours and persisting at this level from 6 to 24 hours”.
For `CCC1(c2ccccc2)C(=O)NC(=O)NC1=O` [Phenobarbital], the “ED50, scBic” value [1] is listed as 37.72 mg/kg, the “ED50, scPic” value [2] is listed as 27.51 mg/kg and the “ED50, scMet” value [11] is listed as 13.17 mg/kg. The “time to peak effect” value [3] was 60 min.
For `CN1C(=O)OC(C)(C)C1=O` [Trimethadione], the “TD50, Rotorod neurotoxicity test” value (neurotoxicity (Rotorod) [12]) is given as 819.07 mg/kg, the “ED50, scBic” value [1] is given as 532.12 mg/kg and the “P.I. (protective index, TD50/ED50), scBic” value [1] is given as 1.54. The “P.I. (protective index, TD50/ED50), scPic” value [2] was 2.01, the “ED50, scPic” value [2] was 408.09 mg/kg and the “P.I. (protective index, TD50/ED50), scMet” value [11] was 2.73. The “ED50, scMet” value [11] was 300.45 mg/kg and the “time to peak effect” value [3] was 60 min.
In the case of `CCCC(CCC)C(=O)O` [VPA, Valproic Acid], the “ED50, scBic” value [1] is given as 359.95 mg/kg, the “ED50, scPic” value [2] is given as 387.21 mg/kg and the “ED50, scMet” value [11] is given as 148.59 mg/kg. For the same compound, the “time to peak effect” value [3] was 16 min and the “ED50, MES” value [13] was 217.66 mg/kg.
